Earlier results in patent US9950112B2 (priority 2010, dated 2018).

Columns and labels:
[1] = morphine during early resuscitation following serious injuries; reduced from 76%
[2] = propofol concentration, human surgical patients, general anesthesia

SMILES: CN1CC[C@]23c4c5ccc(O)c4O[C@H]2[C@@H](O)C=C[C@H]3[C@H]1C5 [morphine]
- incidence of post-traumatic stress disorder (PTSD) [1]: 61%

SMILES: CC(C)c1cccc(C(C)C)c1O [propofol]
- EC50 for awakening [2]: 1.07 ± 0.13 µg/mL
- EC50 for orientation [2]: 0.95 ± 0.19 µg/mL
